Reference: US20150284362A1, “CARBAZOLE-CONTAINING AMIDES, CARBAMATES, AND UREAS AS CRYPTOCHROME MODULATORS” (ReSet Therapeutics, Inc., priority 2014, published 2015)

How the values were obtained:
[1] = Pharmacokinetic analysis in ICR mice (plasma and liver); format: in vivo; conditions: male, plasma, po, mouse, 50 mg/kg P.O., Table 4, read-out: Total Plasma AUC, AUC (0-last)
Experimental: Male ICR mice (weighing 30-40 g, Charles River Laboratories) were used for the experiment with n=3 mice for each experimental group (27 mice total for the study). […] Blood and liver tissue were collected at the following time points after administration: 15, 30, 60, 90 minutes, 3, 6, 12 and 24 hours. A control group of animals (TO) was also sampled. Animals were euthanized with CO2 and the blood collected from the heart using cardiac puncture, transferred to an EDTA tube, and then centrifuged at 5400 rpm for 5 minutes at 4° C. The resultant plasma was frozen using dry ice and then stored at −80° C. until ready for assay. Liver tissue was removed from each animal, 0.5 g was collected in an eppendorff, frozen and submitted for pharmacokinetic measurement.

[2] = tested on: core clock gene mRNAs in liver; assay: Four day study, liver core clock gene mRNA, ICR mice; format: in vivo, mouse; conditions: 50 mg/kg PO BID 4 days, ZT6
Experimental: Male ICR mice (weighing 30-35 g), obtained from Charles River Laboratories (Hollister, Calif.), were used for the experiment following at least 3 days of acclimation. Mice were dosed with vehicle (WFI or 10% Kolliphor) or compound (50 mg/kg, dose volume 5 mL/kg, PO) for 4 days BID (twice a day), beginning in the afternoon of the first day. The last dose of compound or vehicle was administered on the morning of harvest. On the day of harvest (6 hours following the final dose), mice were euthanized by CO2 asphyxiation and 50 mg of liver tissue was excised and placed in a tube containing 500 μl of RNA later.
E.Z.N.A.® HP Total RNA Isolation Kits (R6812-01 and the protocol described in the Manual, Revised 2010) were utilized to prepare and isolate RNA from the liver samples. To prepare the RNA samples, 10-30 mg of sample was removed from RNA-Later and placed in a 1.5 ml microfuge tube. […] The cleared supernatant was transferred by pipetting to a DNA Clearance Column Pre-inserted in a 2 mL Collection Tube. The assembled column was centrifuged at 13,000×g for 1 minute, and the flow-through was saved. An equal volume (700 μl) of 70% ethanol was added to the lysate and mixed. The sample was then applied to a HiBind RNA spin column placed into a 2 ml collection tube, which was centrifuged at 10,000×g for 60 seconds at room temperature. RNA Wash Buffer I (250 μl) was added by pipetting directly onto a new HiBind RNA column inserted in a 2 ml collection tube. The assembled column was centrifuged at 10,000×g for 60 seconds. The RNA column was placed into a new 2 ml collection tube. […] The column with bound RNA was incubated at room temperature (25-30° C.) for 15 minutes. RNA Wash Buffer I (500 μl) was added to the column and placed on a bench top for 2 minutes. After centrifuging at 10,000×g for 60 seconds, discarding the flow-through, 500 μl of RNA Wash Buffer II was added and centrifuged at 10,000×g for 60 seconds. Another 500 μl of RNA Wash Buffer II was added and the column assembly was centrifuged at 10,000×g for 60 seconds. The column was centrifuged for 2 minutes at maximum speed to completely dry the HiBind matrix. The column was placed in a clean 1.5 ml microcentrifuge tube and 40-70 μl of molecular biology grade water is added. After sitting for 1 minute, the column was centrifuged for 2 minutes at maximum speed to elute the RNA. The isolated RNA was collected into the collection tube.
RediPlate 96 RiboGreen RNA Quantification Kit (Invitrogen) RediPlate standard curve was prepared by transferring 20 μl reconstituted RNA standard to a RediPlate well reconstituted in 180 μl RediPlate TE buffer. For liver RNAs prepared from 30-100 mg of tissue using a kit similar to the Omega Bio-Tek HP Total RNA Kit and eluted in RNAse-free water in a volume of 50 μl (microliters), 5 μl of the total RNA is diluted in 195 μl of RediPlate TE buffer (1:40 dilution of RNA), mix. […] Alternatively, one can use the FlexStation 3 with Ex 488 nm and Em 525 nm and a Cutoff of 515 nm.

[3] = tested on: db/db mice; assay: Increasing dosages of Compound 72 over 7 days in db/db mouse model of type II diabetes; format: in vivo; conditions: 10, 50, 100 mg/kg PO QD 7 days
Description: (§1) Significance was accepted when p<0.05.

[4] = tested on: C57/Bl6J DIO mice; assay: 7 day dosing in diet-induced obesity (DIO) mouse model of type II diabetes; format: in vivo; conditions: 100 mg/kg PO QD 7 days
Description: Male C57/Bl6J DIO mice were obtained from The Jackson Laboratory (Sacramento, Calif.). […] Animals were accustomed to these conditions for at least 2 weeks before experimentation and used at approximately 24 weeks of age.
as §1

[5] = tested on: db/db mice; assay: 7 day dosing, glucose metabolism, insulin and compound levels in db/db mouse model of type II diabetes; format: in vivo; conditions: 50 mg/kg PO QD 7 days
Description: as §1

AUC(0-t) [1]: 4160 ng·h/mL
SMILES: O=C1NCCN1CC(O)Cn1c2ccc(F)cc2c2cc(F)ccc21 (stereo not drawn) [Compound 72, 1-(3-(3,6-difluoro-9H-carbazol-9-yl)-2-hydroxypropyl)imidazolidin-2-one]
Cry2 transcripts in liver [2]: decrease
liver Per2 expression [2]: suppression
OGTT glucose excursion following a glucose load [3]: dose dependent effect on glucose excursion
OGTT glucose vs vehicle control group [4]: much lower than the vehicle control group
OGTT glucose vs vehicle control group [5]: lower than the vehicle control group
